For 22 compounds, IC50 and activity results are on record in patent publication US11731946B2, “Broad spectrum antivirulence, anti-persistence compounds” (priority 2017, dated 2023).

The structures appear in SMILES notation.

For the first experiment, the system named is MvfR regulon. The experiment in a line: Quantification of pyocyanin (OD520nm of chloroform-extracted cultures). The class given is cell-based, P. aeruginosa. The conditions noted are these: Pseudomonas aeruginosa, read-out: IC50 pyocyanin (μM).
The term IC50 denotes the concentration that inhibits the measured activity by half. For `N#Cc1ccc(NC(=O)CNc2ccc(Cl)cc2)cc1` [Compound 28], the IC50 came out at 20.4 µM.
Regarding `O=C(CC(=O)Nc1ccc(Oc2ccccc2)cc1)Nc1ccc(Cl)cc1` [Compound 82], the IC50 worked out at 0.09 µM.
Same read-out and setting: then `O=C(CC(=O)Nc1ccc(Oc2ccccc2)cc1)Nc1ccc(F)cc1` [Compound 83], with 0.83 µM; and `N#Cc1ccc(NC(=O)CC(=O)Nc2ccc(C(F)(F)F)cc2)cc1` [Compound 84], with 0.45 µM.

The experiment is the same for the next values; noted with them: Pseudomonas aeruginosa, read-out: pyocyanin @1 uM (%), compound at 1 uM.
Take `N#Cc1ccc(NC(=O)C[C@H](Nc2ccc(Oc3ccccc3)cc2)C(F)(F)F)cc1` (racemic) [Compound 108]: the activity at 1 µM came out at 91.9%.
On the same count and under the same terms, in the case of `O=C(Nc1ccc(Oc2ccccc2)cc1)[C@@H](F)C(=O)Nc1ccc(C(F)(F)F)cc1` (racemic) [Compound 115] it was 27.1%.
As to `N#Cc1ccc(NC(=O)CC(=O)Nc2ccccc2Br)cc1` [Compound 55], the activity at 1 µM was 99%.
For the compound `N#Cc1ccc(NC(=O)CC(=O)Nc2cccc(Br)c2)cc1` [Compound 56], the activity at 1 µM was 79.9%.
In the case of `O=C(CC(=O)Nc1ccc(Oc2ccccc2)cc1)Nc1ccc(Cl)cc1` [Compound 82], the activity at 1 µM was 40.3%.
Same read-out and setting: in the case of `O=C(CC(=O)Nc1ccc(Oc2ccccc2)cc1)Nc1ccc(F)cc1` [Compound 83] it was 44.7%; in that of `N#Cc1ccc(NC(=O)CC(=O)Nc2ccc(C(F)(F)F)cc2)cc1` [Compound 84], 46.8%.

The same experiment, now with this note: Pseudomonas aeruginosa, read-out: pyocyanin @10 uM (%), compound at 10 uM.
`N#Cc1ccc(NC(=O)C[C@H](Nc2ccc(Oc3ccccc3)cc2)C(F)(F)F)cc1` (racemic) [Compound 108]: the activity at 10 µM was found to be 76.8%.
The same measure, in the same setting: in the case of `O=C(Nc1ccc(Oc2ccccc2)cc1)[C@@H](F)C(=O)Nc1ccc(C(F)(F)F)cc1` (racemic) [Compound 115] it was 11.4%; in that of `N#Cc1ccc(NC(=O)CC(=O)Nc2ccccc2Br)cc1` [Compound 55], 70.7%.
As for `N#Cc1ccc(NC(=O)CC(=O)Nc2cccc(Br)c2)cc1` [Compound 56], the activity at 10 µM is 41.4%.
On the same count and under the same terms, then `O=C(CC(=O)Nc1ccc(Oc2ccccc2)cc1)Nc1ccc(Cl)cc1` [Compound 82], with 39.9%; and `O=C(CC(=O)Nc1ccc(Oc2ccccc2)cc1)Nc1ccc(F)cc1` [Compound 83], with 41.3%; and `N#Cc1ccc(NC(=O)CC(=O)Nc2ccc(C(F)(F)F)cc2)cc1` [Compound 84], with 6.98%.

Still in this experiment, the particulars now being: Pseudomonas aeruginosa, read-out: pyocyanin @50 uM (%), compound at 50 uM.
In the case of `N#Cc1ccc(NC(=O)C[C@H](Nc2ccc(Oc3ccccc3)cc2)C(F)(F)F)cc1` (racemic) [Compound 108], the activity at 50 µM was 91%.
As to `O=C(Nc1ccc(Oc2ccccc2)cc1)[C@@H](F)C(=O)Nc1ccc(C(F)(F)F)cc1` (racemic) [Compound 115], the activity at 50 µM turned out to be 7.08%.
The same measure, in the same setting: in the case of `Cc1cc(F)ccc1NCC(=O)Nc1ccccc1Br` [Compound 14] it was 101%; in that of `CCc1ccccc1NCC(=O)Nc1ccc(C#N)cc1` [Compound 15], 97.3%; in that of `N#Cc1ccc(NC(=O)CNc2ccc(F)cc2F)cc1` [Compound 16], 89.1%.
Same read-out and setting: in the case of `Cc1cc(F)ccc1NCC(=O)Nc1ccc(N2CCOCC2)cc1` [Compound 17] it was 102%; in that of `N#Cc1ccc(NC(=O)CNc2cccc(F)c2)cc1` [Compound 18], 91.3%; in that of `Cc1cc(F)ccc1NCC(=O)Nc1ccc(Br)cc1C` [Compound 19], 88.7%.
Consider `CC(=O)c1ccc(NC(=O)CNc2ccc(F)cc2C)cc1` [Compound 20], for which the activity at 50 µM came out at 102%.
The same measure, in the same setting: in the case of `Cc1cc(F)ccc1NCC(=O)Nc1ccc(N2CCCC2=O)cc1` [Compound 21] it was 107%.
Regarding `Cc1cc(F)ccc1NCC(=O)Nc1c(F)cccc1F` [Compound 22], the activity at 50 µM is 89.9%.
Consider `CNC(=O)NC(=O)CNc1ccc(F)cc1C` [Compound 23], for which the activity at 50 µM turned out to be 101%.
`Cc1ccc(NC(=O)CNc2ccc(F)cc2C)c(Br)c1` [Compound 24]: the activity at 50 µM amounted to 108%.
`Cc1cc(F)ccc1NCC(=O)Nc1cccc(C#N)c1` [Compound 25]: the activity at 50 µM is 100%.
For the compound `Cc1cc(F)ccc1NCC(=O)Nc1cccc([N+](=O)[O-])c1` [Compound 26], the activity at 50 µM is 85.2%.
On to `COc1ccc(NC(=O)CNc2ccc(F)cc2C)cc1` [Compound 27], for which the activity at 50 µM was 102%.
On the same count and under the same terms, then `N#Cc1ccc(NC(=O)CNc2ccc(Cl)cc2)cc1` [Compound 28], with 43.2%.
On to `N#Cc1ccc(NC(=O)CC(=O)Nc2ccccc2Br)cc1` [Compound 55], for which the activity at 50 µM worked out at 86.3%.
For `N#Cc1ccc(NC(=O)CC(=O)Nc2cccc(Br)c2)cc1` [Compound 56], the activity at 50 µM was determined as 17.2%.
Still for that read-out and setting: in the case of `O=C(CC(=O)Nc1ccc(Oc2ccccc2)cc1)Nc1ccc(Cl)cc1` [Compound 82] it was 26%.
For the compound `O=C(CC(=O)Nc1ccc(Oc2ccccc2)cc1)Nc1ccc(F)cc1` [Compound 83], the activity at 50 µM was determined as 33.5%.
Same read-out and setting: then `N#Cc1ccc(NC(=O)CC(=O)Nc2ccc(C(F)(F)F)cc2)cc1` [Compound 84], with 6.1%.

For the next experiment, the system named is MvfR regulon. The experiment in a line: pqsA gene expression (pqsA-GFP reporter). It counts as cell-based, P. aeruginosa. The conditions noted are these: Pseudomonas aeruginosa, read-out: IC50 pqsA (μM). On the procedure:
Experiments were performed to identify compounds that inhibit the MvfR regulon without altering growth, ultimately attenuating P. aeruginosa infection. MvfR is a LysR-type transcriptional regulator that directs HAQs synthesis, including that of its ligands, 4-hydroxy-2-heptylquinoline (HHQ) and 3,4-dihydroxy-2-heptylquinoline (PQS).
MvfR promotes the production of HAQs by binding to and activating the pqs operon, which encodes enzymes for HAQ synthesis. Anthranilic acid (AA), derived from the phnAB, kynABU, and trpEG pathways, is the precursor for HAQs. pqsA encodes an anthranilate-coenzyme A ligase, which activates anthranilic acid and catalyzes the first committed step to HAQ production. The exact roles of PqsB and PqsC are unknown, though both show homology to acyl-carrier-proteins and both are required for HHQ and PQS production. […] The final gene of the operon, pqsE encodes for a putative hydrolase, and while the protein is not required for the synthesis of HAQs, it is necessary for pyocyanin production.
Nanomolar levels of most of these MvfR antagonists impeded the activity of MvfR and in consequence the MvfR virulence regulated ACRP functions, including: (1) the production of the important pro-acute P. aeruginosa virulence factor pyocyanin (see e.g., FIG. 9A) the efficacy of two of these potent inhibitors, D57 and D88, was also confirmed by testing many different MDR P. aeruginosa clinical isolates (see e.g., FIG. 11A-11B), providing further confidence of their inhibitory potency; (2) the expression of the genes that encode the enzymes catalyzing the synthesis of both pro-acute and pro-persistence MvfR-regulated virulence molecules, 4-hydroxyl-2-alkyl-quinolines (HAQs) and 2-aminoacetophenon (2-AA), as assessed by pqsAGFP reporter gene expression (see e.g., FIG. 9B) and HAQ production showing the levels of MvfR inducers/ligands HHQ and PQS as well as of the molecules critical for biofilm and Antibiotic tolerant/persiters cells formation HQNO and 2-AA (see e.g., FIG. 9C); (3) AT/P cell formation (see e.g., FIGS. 11A, 12A); (4) biofilm formation (see e.g., FIG. 12B); and (5) biofilm dispersal of preformed biofilm by potentiating antibiotic action (see e.g., FIG. 11B).
Turning to `N#Cc1ccc(NC(=O)CNc2ccc(Cl)cc2)cc1` [Compound 28], the IC50 came to 24.6 µM.

The same experiment, now with this note: Pseudomonas aeruginosa, read-out: pqsA @10 uM (%), compound at 10 uM.
`N#Cc1ccc(NC(=O)C[C@H](Nc2ccc(Oc3ccccc3)cc2)C(F)(F)F)cc1` (racemic) [Compound 108]: the activity at 10 µM came to 87%.
Same read-out and setting: then `O=C(Nc1ccc(Oc2ccccc2)cc1)[C@@H](F)C(=O)Nc1ccc(C(F)(F)F)cc1` (racemic) [Compound 115], with 1.05%; and `N#Cc1ccc(NC(=O)CC(=O)Nc2ccccc2Br)cc1` [Compound 55], with 94%; and `N#Cc1ccc(NC(=O)CC(=O)Nc2cccc(Br)c2)cc1` [Compound 56], with 64.2%.
Take `O=C(CC(=O)Nc1ccc(Oc2ccccc2)cc1)Nc1ccc(Cl)cc1` [Compound 82]: the activity at 10 µM turned out to be 28.8%.
On to `O=C(CC(=O)Nc1ccc(Oc2ccccc2)cc1)Nc1ccc(F)cc1` [Compound 83], for which the activity at 10 µM is 27.7%.
`N#Cc1ccc(NC(=O)CC(=O)Nc2ccc(C(F)(F)F)cc2)cc1` [Compound 84]: the activity at 10 µM is 6.98%.

Still in this experiment, the particulars now being: Pseudomonas aeruginosa, read-out: pqsA @50 uM (%), compound at 50 uM.
On to `N#Cc1ccc(NC(=O)C[C@H](Nc2ccc(Oc3ccccc3)cc2)C(F)(F)F)cc1` (racemic) [Compound 108], for which the activity at 50 µM is 88.4%.
`O=C(Nc1ccc(Oc2ccccc2)cc1)[C@@H](F)C(=O)Nc1ccc(C(F)(F)F)cc1` (racemic) [Compound 115]: the activity at 50 µM amounted to 1.75%.
Still for that read-out and setting: then `Cc1cc(F)ccc1NCC(=O)Nc1ccccc1Br` [Compound 14], with 96.2%; and `CCc1ccccc1NCC(=O)Nc1ccc(C#N)cc1` [Compound 15], with 92%.
On the same count and under the same terms, in the case of `N#Cc1ccc(NC(=O)CNc2ccc(F)cc2F)cc1` [Compound 16] it was 56.3%.
On the same count and under the same terms, in the case of `Cc1cc(F)ccc1NCC(=O)Nc1ccc(N2CCOCC2)cc1` [Compound 17] it was 99.8%; in that of `N#Cc1ccc(NC(=O)CNc2cccc(F)c2)cc1` [Compound 18], 68%; in that of `Cc1cc(F)ccc1NCC(=O)Nc1ccc(Br)cc1C` [Compound 19], 70%.
For the compound `CC(=O)c1ccc(NC(=O)CNc2ccc(F)cc2C)cc1` [Compound 20], the activity at 50 µM came out at 97.7%.
The same measure, in the same setting: in the case of `Cc1cc(F)ccc1NCC(=O)Nc1ccc(N2CCCC2=O)cc1` [Compound 21] it was 105%; in that of `Cc1cc(F)ccc1NCC(=O)Nc1c(F)cccc1F` [Compound 22], 89.2%; in that of `CNC(=O)NC(=O)CNc1ccc(F)cc1C` [Compound 23], 97%.
The same measure, in the same setting: then `Cc1ccc(NC(=O)CNc2ccc(F)cc2C)c(Br)c1` [Compound 24], with 92.3%; and `Cc1cc(F)ccc1NCC(=O)Nc1cccc(C#N)c1` [Compound 25], with 90.2%; and `Cc1cc(F)ccc1NCC(=O)Nc1cccc([N+](=O)[O-])c1` [Compound 26], with 76.5%.
Same read-out and setting: in the case of `COc1ccc(NC(=O)CNc2ccc(F)cc2C)cc1` [Compound 27] it was 86.9%; in that of `N#Cc1ccc(NC(=O)CNc2ccc(Cl)cc2)cc1` [Compound 28], 17.7%.
